Assay results from ChEMBL document CHEMBL1135977, “Comparison of 3D structures and AT(1) binding properties of pyrazolidine-3,5-diones and tetrahydropyridazine-3,6-diones with parent antihypertensive drug irbesartan” (J Med Chem, 2002).

Experiments:
[1] = Inhibition of AII(50 nM) induced intracellular [Ca2+] increase in PLC-PRF cells; format: functional, cell-based; settings: Homo sapiens
[2] = target: T1, Type-1 angiotensin II receptor (Homo sapiens, UniProt P30556); assay: In vitro binding affinity towards Angiotensin II receptor, type 1 of human hepatoma cell line PLC-PRF-5
T1 sequence (P30556 whole entry): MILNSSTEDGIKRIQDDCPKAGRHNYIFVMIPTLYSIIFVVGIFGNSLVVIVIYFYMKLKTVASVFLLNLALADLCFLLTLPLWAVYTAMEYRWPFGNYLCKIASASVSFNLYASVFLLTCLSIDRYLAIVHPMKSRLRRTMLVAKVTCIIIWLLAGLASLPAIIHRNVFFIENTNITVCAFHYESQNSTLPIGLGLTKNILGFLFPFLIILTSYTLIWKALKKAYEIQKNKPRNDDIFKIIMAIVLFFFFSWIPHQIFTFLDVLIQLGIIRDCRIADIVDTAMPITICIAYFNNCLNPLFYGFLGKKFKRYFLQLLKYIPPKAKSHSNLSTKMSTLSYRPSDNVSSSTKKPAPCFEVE

SMILES | IC50 [1] | Ki [2]
CCCCN1C(=O)C2(CCCC2)C(=O)N1Cc1ccc(-c2ccccc2-c2nn[nH]n2)cc1 | 28 nM | –
CCCCC1=NC2(CCCC2)C(=O)N1Cc1ccc(-c2ccccc2-c2nnn[nH]2)cc1 [IRBESARTAN] | 4 nM | –
CCCCN1C(=O)CC2(CCCC2)C(=O)N1Cc1ccc(-c2ccccc2-c2nn[nH]n2)cc1 | 9 nM | 14 nM
CCCCN1C(=O)C2(CCCC2)CC(=O)N1Cc1ccc(-c2ccccc2-c2nnn[nH]2)cc1 | 102 nM | 80 nM
